Laboratory results as given in the supplement of paper PMC8612539.
In brackets after ≈: the same amount, converted by molar mass.

Tested on: Pasteurella multocida
Assay: minimum inhibitory concentration (MIC)
Experimental: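 Broth microdilution MIC (Sensititre BOPO7F bovine plate, CLSI methods) of 19 antimicrobials against field isolates of P. multocida, M. haemolytica, H. somni (deep nasopharyngeal swabs) and E. coli, Enterococcus spp. (rectal swabs) from weaned dairy heifers. Incubation 16-24 h at 35 C. MIC is the lowest concentration preventing visible growth. Values with <= or > lie at the tested range limits. Trimethoprim-sulfamethoxazole is given as the trimethoprim component of a 1:19 mixture.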

C=C[C@]1(C)C[C@@H](OC(=O)CSCCN(CC)CC)[C@]2(C)[C@H](C)CC[C@]3(CCC(=O)[C@H]32)[C@@H](C)[C@@H]1O [Tiamulin]
Details | minimum inhibitory concentration [µg/mL]
isolate (source animal id): 10 | 16 (≈ 32.4 µM)
isolate (source animal id): 11 | 16 (≈ 32.4 µM)
isolate (source animal id): 12 | 16 (≈ 32.4 µM)
isolate (source animal id): 19 | 16 (≈ 32.4 µM)
isolate (source animal id): 23 | 16 (≈ 32.4 µM)
isolate (source animal id): 26 | 32 (≈ 64.8 µM)
isolate (source animal id): 98 | 32 (≈ 64.8 µM)
isolate (source animal id): 104 | 32 (≈ 64.8 µM)
isolate (source animal id): 115 | 32 (≈ 64.8 µM)
isolate (source animal id): 117 | 32 (≈ 64.8 µM)
isolate (source animal id): 118 | 32 (≈ 64.8 µM)
isolate (source animal id): 121 | 32 (≈ 64.8 µM)
isolate (source animal id): 124 | 32 (≈ 64.8 µM)
isolate (source animal id): 125 | 32 (≈ 64.8 µM)
isolate (source animal id): 128 | 32 (≈ 64.8 µM)
isolate (source animal id): 131 | 32 (≈ 64.8 µM)
isolate (source animal id): 135 | 16 (≈ 32.4 µM)
isolate (source animal id): 136 | 32 (≈ 64.8 µM)
isolate (source animal id): 140 | 32 (≈ 64.8 µM)
isolate (source animal id): 144 | 32 (≈ 64.8 µM)
isolate (source animal id): 146 | 32 (≈ 64.8 µM)
isolate (source animal id): 150 | 32 (≈ 64.8 µM)
isolate (source animal id): 151 | 32 (≈ 64.8 µM)
isolate (source animal id): 153 | 32 (≈ 64.8 µM)
isolate (source animal id): 155 | 32 (≈ 64.8 µM)
isolate (source animal id): 157 | 16 (≈ 32.4 µM)
isolate (source animal id): 160 | 32 (≈ 64.8 µM)
isolate (source animal id): 164 | 32 (≈ 64.8 µM)
isolate (source animal id): 165 | 32 (≈ 64.8 µM)
isolate (source animal id): 167 | 32 (≈ 64.8 µM)
isolate (source animal id): 168 | 32 (≈ 64.8 µM)
isolate (source animal id): 169 | 16 (≈ 32.4 µM)
isolate (source animal id): 170 | 32 (≈ 64.8 µM)
isolate (source animal id): 171 | 32 (≈ 64.8 µM)
isolate (source animal id): 172 | 32 (≈ 64.8 µM)
isolate (source animal id): 173 | 32 (≈ 64.8 µM)
isolate (source animal id): 174 | 16 (≈ 32.4 µM)
isolate (source animal id): 175 | 32 (≈ 64.8 µM)
isolate (source animal id): 176 | 16 (≈ 32.4 µM)
isolate (source animal id): 177 | 32 (≈ 64.8 µM)
isolate (source animal id): 178 | 32 (≈ 64.8 µM)
isolate (source animal id): 179 | 32 (≈ 64.8 µM)
isolate (source animal id): 182 | 32 (≈ 64.8 µM)
isolate (source animal id): 192 | 32 (≈ 64.8 µM)
isolate (source animal id): 193 | 32 (≈ 64.8 µM)
isolate (source animal id): 195 | 32 (≈ 64.8 µM)
isolate (source animal id): 196 | 32 (≈ 64.8 µM)
isolate (source animal id): 197 | 32 (≈ 64.8 µM)
isolate (source animal id): 198 | 32 (≈ 64.8 µM)
isolate (source animal id): 199 | 32 (≈ 64.8 µM)
isolate (source animal id): 200 | 32 (≈ 64.8 µM)
isolate (source animal id): 201 | 32 (≈ 64.8 µM)
isolate (source animal id): 203 | 16 (≈ 32.4 µM)
isolate (source animal id): 204 | 32 (≈ 64.8 µM)
isolate (source animal id): 205 | 32 (≈ 64.8 µM)
isolate (source animal id): 206 | 32 (≈ 64.8 µM)
isolate (source animal id): 207 | 32 (≈ 64.8 µM)
isolate (source animal id): 208 | 16 (≈ 32.4 µM)
isolate (source animal id): 209 | 16 (≈ 32.4 µM)
isolate (source animal id): 210 | 32 (≈ 64.8 µM)
isolate (source animal id): 213 | 16 (≈ 32.4 µM)
isolate (source animal id): 216 | 32 (≈ 64.8 µM)
isolate (source animal id): 223 | 16 (≈ 32.4 µM)
isolate (source animal id): 227 | 16 (≈ 32.4 µM)
isolate (source animal id): 229 | 32 (≈ 64.8 µM)
isolate (source animal id): 233 | > 32
isolate (source animal id): 234 | 32 (≈ 64.8 µM)
isolate (source animal id): 237 | 32 (≈ 64.8 µM)
isolate (source animal id): 241 | 32 (≈ 64.8 µM)
isolate (source animal id): 245 | 32 (≈ 64.8 µM)
isolate (source animal id): 247 | 32 (≈ 64.8 µM)
isolate (source animal id): 250 | 32 (≈ 64.8 µM)
isolate (source animal id): 254 | 32 (≈ 64.8 µM)
isolate (source animal id): 255 | 16 (≈ 32.4 µM)
isolate (source animal id): 258 | 32 (≈ 64.8 µM)
isolate (source animal id): 261 | 32 (≈ 64.8 µM)
isolate (source animal id): 262 | 32 (≈ 64.8 µM)
isolate (source animal id): 269 | 32 (≈ 64.8 µM)
isolate (source animal id): 270 | 32 (≈ 64.8 µM)
isolate (source animal id): 274 | 32 (≈ 64.8 µM)
isolate (source animal id): 275 | 32 (≈ 64.8 µM)
isolate (source animal id): 276 | 32 (≈ 64.8 µM)
isolate (source animal id): 277 | 32 (≈ 64.8 µM)
isolate (source animal id): 278 | 32 (≈ 64.8 µM)
isolate (source animal id): 279 | 32 (≈ 64.8 µM)
isolate (source animal id): 280 | 32 (≈ 64.8 µM)
isolate (source animal id): 284 | 32 (≈ 64.8 µM)
isolate (source animal id): 285 | 32 (≈ 64.8 µM)
isolate (source animal id): 287 | 32 (≈ 64.8 µM)
isolate (source animal id): 290 | 32 (≈ 64.8 µM)
isolate (source animal id): 294 | 32 (≈ 64.8 µM)
isolate (source animal id): 295 | > 32
isolate (source animal id): 296 | 32 (≈ 64.8 µM)
isolate (source animal id): 307 | 32 (≈ 64.8 µM)
isolate (source animal id): 310 | > 32
isolate (source animal id): 311 | > 32
isolate (source animal id): 312 | 32 (≈ 64.8 µM)
isolate (source animal id): 313 | 32 (≈ 64.8 µM)
isolate (source animal id): 315 | 32 (≈ 64.8 µM)
isolate (source animal id): 316 | 32 (≈ 64.8 µM)

CC[C@H]1OC(=O)C[C@@H](O)[C@H](C)[C@@H](O[C@@H]2O[C@H](C)[C@@H](O)[C@H](N(C)C)[C@H]2O)[C@@H](CCN2CCCCC2)C[C@@H](C)C(=O)/C=C/C(C)=C/[C@@H]1CN1CCCCC1 [Tildipirosin]
Details | minimum inhibitory concentration [µg/mL]
isolate (source animal id): 10 | > 16
isolate (source animal id): 11 | > 16
isolate (source animal id): 12 | > 16
isolate (source animal id): 19 | > 16
isolate (source animal id): 23 | > 16
isolate (source animal id): 26 | > 16
isolate (source animal id): 98 | > 16
isolate (source animal id): 104 | > 16
isolate (source animal id): 115 | > 16
isolate (source animal id): 117 | > 16
isolate (source animal id): 118 | > 16
isolate (source animal id): 121 | > 16
isolate (source animal id): 124 | > 16
isolate (source animal id): 125 | > 16
isolate (source animal id): 128 | > 16
isolate (source animal id): 131 | > 16
isolate (source animal id): 135 | > 16
isolate (source animal id): 136 | > 16
isolate (source animal id): 140 | > 16
isolate (source animal id): 144 | > 16
isolate (source animal id): 146 | > 16
isolate (source animal id): 150 | > 16
isolate (source animal id): 151 | > 16
isolate (source animal id): 153 | > 16
isolate (source animal id): 155 | > 16
isolate (source animal id): 157 | > 16
isolate (source animal id): 160 | > 16
isolate (source animal id): 164 | > 16
isolate (source animal id): 165 | > 16
isolate (source animal id): 167 | ≤ 1
isolate (source animal id): 168 | > 16
isolate (source animal id): 169 | ≤ 1
isolate (source animal id): 170 | 2 (≈ 2.72 µM)
isolate (source animal id): 171 | ≤ 1
isolate (source animal id): 172 | ≤ 1
isolate (source animal id): 173 | > 16
isolate (source animal id): 174 | ≤ 1
isolate (source animal id): 175 | ≤ 1
isolate (source animal id): 176 | ≤ 1
isolate (source animal id): 177 | ≤ 1
isolate (source animal id): 178 | ≤ 1
isolate (source animal id): 179 | ≤ 1
isolate (source animal id): 182 | 2 (≈ 2.72 µM)
isolate (source animal id): 192 | ≤ 1
isolate (source animal id): 193 | ≤ 1
isolate (source animal id): 195 | ≤ 1
isolate (source animal id): 196 | ≤ 1
isolate (source animal id): 197 | 2 (≈ 2.72 µM)
isolate (source animal id): 198 | > 16
isolate (source animal id): 199 | ≤ 1
isolate (source animal id): 200 | ≤ 1
isolate (source animal id): 201 | ≤ 1
isolate (source animal id): 203 | ≤ 1
isolate (source animal id): 204 | ≤ 1
isolate (source animal id): 205 | > 16
isolate (source animal id): 206 | ≤ 1
isolate (source animal id): 207 | ≤ 1
isolate (source animal id): 208 | ≤ 1
isolate (source animal id): 209 | ≤ 1
isolate (source animal id): 210 | > 16
isolate (source animal id): 213 | 2 (≈ 2.72 µM)
isolate (source animal id): 216 | ≤ 1
isolate (source animal id): 223 | > 16
isolate (source animal id): 227 | ≤ 1
isolate (source animal id): 229 | > 16
isolate (source animal id): 233 | > 16
isolate (source animal id): 234 | > 16
isolate (source animal id): 237 | > 16
isolate (source animal id): 241 | > 16
isolate (source animal id): 245 | > 16
isolate (source animal id): 247 | > 16
isolate (source animal id): 250 | > 16
isolate (source animal id): 254 | > 16
isolate (source animal id): 255 | > 16
isolate (source animal id): 258 | ≤ 1
isolate (source animal id): 261 | > 16
isolate (source animal id): 262 | > 16
isolate (source animal id): 269 | ≤ 1
isolate (source animal id): 270 | > 16
isolate (source animal id): 274 | > 16
isolate (source animal id): 275 | > 16
isolate (source animal id): 276 | > 16
isolate (source animal id): 277 | ≤ 1
isolate (source animal id): 278 | > 16
isolate (source animal id): 279 | > 16
isolate (source animal id): 280 | > 16
isolate (source animal id): 284 | > 16
isolate (source animal id): 285 | > 16
isolate (source animal id): 287 | > 16
isolate (source animal id): 290 | > 16
isolate (source animal id): 294 | > 16
isolate (source animal id): 295 | > 16
isolate (source animal id): 296 | > 16
isolate (source animal id): 307 | > 16
isolate (source animal id): 310 | > 16
isolate (source animal id): 311 | > 16
isolate (source animal id): 312 | > 16
isolate (source animal id): 313 | > 16
isolate (source animal id): 315 | > 16
isolate (source animal id): 316 | > 16
